This is an account of results in US6407098B1, “Fungicidal aza-heterocycloalkenes” (Bayer Aktiengesellschaft, priority 1995, dated 2002).

Each structure is given as a SMILES string.

Data set [1] deals with Venturia inaequalis. Nature of the data set: Venturia test (apple)/protective. The note with it: protective, active compound concentration 500 ppm, evaluation 12 days after inoculation. The data set is classed as in vivo. As to the method: Venturia test (apple)/protective Solvent: 12.5 parts by weight of acetone Emulsifier: 0.3 parts by weight of alkylaryl polyglycol ether To produce a suitable preparation of active compound, 1 part by weight of active compound is mixed with the stated amounts of solvent and emulsifier, and the concentrate is diluted with water to the desired concentration. To test for protective activity, young plants are sprayed with the preparation of active compound until dripping wet. After the spray coating has dried on, the plants are inoculated with an aqueous conidia suspension of the apple scab causative organism Venturia inaequalis and then remain in an incubation cabin at 20° C. and 100% relative atmospheric humidity for 1 day. The plants are then placed in a greenhouse at 20° C. and a relative atmospheric humidity of about 70%. Evaluation is carried out 12 days after the inoculation.

The subject of data set [2] is Erysiphe graminis f.sp. hordei. Description: Erysiphe test (barley)/protective. Conditions: protective, active compound concentration 500 ppm, evaluation 7 days after inoculation. It is filed as in vivo. As to the method: Erysiphe test (barley)/protective Solvent: 12.5 parts by weight of N-methyl-pyrrolidone Emulsifier: 0.3 parts by weight of alkylaryl polyglycol ether To produce a suitable preparation of active compound, 1 part by weight of active compound is mixed with the stated amounts of solvent and emulsifier, and the concentrate is diluted with water to the desired concentration. To test for protective activity, young plants are sprayed with the preparation of active compound at the stated application rate. After the spray coating has dried on, the plants are dusted with spores of Erysiphe graminis f.sp. hordei. The plants are placed in a greenhouse at a temperature of about 20° C. and a relative atmospheric humidity of about 80%, in order to promote the development of powdery mildew pustules. Evaluation is carried out 7 days after the inoculation.

The subject of data set [3] is Podosphaera leucotricha. Description: Podosphaera test (apple)/protective. The data set is classed as in vivo. The note with it: protective, active compound concentration 100 ppm, evaluation 10 days after inoculation. The protocol: Podosphaera test (apple)/protective Solvent: 4.7 parts by weight of acetone Emulsifier: 0.3 parts by weight of alkylaryl polyglycol ether To produce a suitable preparation of active compound, 1 part by weight of active compound is mixed with the stated amounts of solvent and emulsifier, and the concentrate is diluted with water to the desired concentration. To test for protective activity, young plants are sprayed with the preparation of active compound. After the spray coating has dried on, the plants are inoculated by dusting with conidia of the causative organism of apple mildew (Podosphaera leucotricha). The plants are then placed in a greenhouse at 23° C. and a relative atmospheric humidity of about 70%. Evaluation is carried out 10 days after the inoculation.

Data set [4] deals with Sphaerotheca fuliginea. Nature of the data set: Sphaerotheca test (cucumber)/protective. The note with it: protective, active compound concentration 100 ppm, evaluation 10 days after inoculation. The data set is classed as in vivo. As to the method: Sphaerotheca test (cucumber)/protective Solvent: 4.7 parts by weight of acetone Emulsifier: 0.3 parts by weight of alkylaryl polyglycol ether To produce a suitable preparation of active compound, 1 part by weight of active compound is mixed with the stated amounts of solvent and emulsifier, and the concentrate is diluted with water to the desired concentration. To test for protective activity, young plants are sprayed with the preparation of active compound. After the spray coating has dried on, the plants are dusted with conidia of the fungus Sphaerotheca fuliginea. The plants are then placed in a greenhouse at 23 to 24° C. and at a relative atmospheric humidity of about 75%. Evaluation is carried out 10 days after the inoculation.

Data set [5] in a line: logP. The data set is classed as physicochemical.

With `CO/N=C(/C1=NOCCN1)c1ccccc1COc1ccccc1C` [Example I-1, 3-{1-[2-(2-methylphenoxymethyl)-phenyl]-1-(methoximino)-methyl}-5,6-dihydro-4H-1,2,4-oxadiazine], the degree of action in data set [1] was 100%; in data set [2], 90%.
In the case of `CO/N=C(/C1=NOCCS1)c1ccccc1COc1ccccc1C` [Example I-2, 3-{1-[2-(2-methylphenoxymethyl)phenyl]-1-(methoximino)methyl}-5,6dihydro4H-1,4,2-oxathiazine], the degree of action in data set [1] is reported as 100%; in data set [2] it was 90%; in data set [3], 90%; in data set [4] it was 96%.
Compound `CON=C(C1=NN(C)CCO1)c1ccccc1COc1ccccc1C` [Example I-3, 2-{1-methoximino-1-[2-(2-methylphenoxymethyl)-phenyl]-methyl}-4-methyl-5,6-dihydro4H-1,3,4oxadiazine] came in with a logP in data set [5] of 3.54.

A word on the logP: it is the decadic logarithm of the partition coefficient of the neutral form, usually between octanol and water. A high value points to a more lipophilic compound.
